One test concerns the target apo FDAS (Streptantibioticus cattleyicolor, UniProt Q70GK9). The experiment in a line: ITC binding of ligands to apo FDAS. Also on record: species or system Streptomyces cattleya. Conditions: for Stoichiometry (N) / Ka (app) / S / ΔH: 25 °C; for Stoichiometry (N): 20mM sodium phosphate buffer (pH 7.8), apo FDAS; for Ka (app) / S / ΔH: pH 7.8, apo FDAS.
Test [1] addresses FDAS pre-incubated with 5′-FDA (Streptantibioticus cattleyicolor, UniProt Q70GK9). As to conditions: 1mM L-methionine titrated into 0.08 mM FDA and 0.02 mM apo FDAS mixture.
Test [2] concerns the target FDAS pre-incubated with adenosine (Streptantibioticus cattleyicolor, UniProt Q70GK9). As to conditions: 1mM L-methionine titrated into 0.024 mM Adenosine and 0.02 mM apo FDAS mixture.
Another test has as its target FDAS (native, wild type) (Streptantibioticus cattleyicolor, UniProt Q70GK9). The experiment in a line: Isothermal titration calorimetry. The test is classed as binding.
The target in test [3] is T1, FDAS (Streptantibioticus cattleyicolor, UniProt Q70GK9). Briefly: Reactivity of SAH / homocysteine with FDAS. The format is biochemical, Streptomyces cattleya.
A further test deals with D16N mutation of FDAS (Streptantibioticus cattleyicolor, UniProt Q70GK9, D16N). The experiment in a line: ITC binding of SAM to D16N mutant. Also on record: species or system Streptomyces cattleya.
In test [4] the target is T1, FDAS. Briefly: Discontinuous assay of FDAS. The format is biochemical, Streptomyces cattleya. As to conditions: F^− 200mM.
The test system of test [5] is FDAS. Briefly: Discontinuous assay of FDAS. The test is classed as biochemical, Streptomyces cattleya. Conditions: turnover at a fixed substrate concentration compared to the wild type.
For test [6], the target named is T1, FDAS. Briefly: Active site titration of FDAS. The format is biochemical, Streptomyces cattleya.

pKd: −log10 of the molar value.

For `Nc1ncnc2c1ncn2[C@@H]1O[C@H](CF)[C@@H](O)[C@H]1O` [FDA, 5′-fluoro-5′-deoxy adenosine], at apo FDAS (ITC), the “Stoichiometry (N)” value is 1.16 ± 0.01, the “Ka (app)” value was 45.5 ± 6.5 ×10^5 M^−1, the S is -0.017 kcal/mol and the ΔH is -14 ± 0.1 kcal/mol.
Regarding `Nc1ncnc2c1ncn2[C@@H]1O[C@H](CO)C[C@H]1O` [3′-deoxy-Ade], on apo FDAS (ITC), the “reduction of affinity relative to adenosine” value was determined as 3 fold, the “Stoichiometry (N)” value was 0.37 ± 0.02, the “Ka (app)” value is recorded as 4.5 ± 0.6 ×10^5 M^−1 and the S was -0.027 kcal/mol. For the same compound, on apo FDAS (ITC), the ΔH is -16 ± 0.9 kcal/mol.
Consider `CSCC[C@H](N)C(=O)O` [L-methionine], for which, in test [1], the S is -0.036 kcal/mol and the ΔH was -17 ± 2 kcal/mol. In [2], the S was -0.022 kcal/mol, the “Stoichiometry (N)” value is listed as 0.48 ± 0.11 and the ΔH was -13 ± 3 kcal/mol.
Compound `Nc1ncnc2c1ncn2[C@@H]1O[C@H](CO)C[C@H]1O` [3′-deoxy-Ade, 3′-deoxyadenosine] showed a pKd at FDAS (native, wild type) of 5.65.
For the compound `NC(CCS)C(=O)O` (stereo not shown) [homocysteine], the “SAH production by the enzyme (HPLC)” value at FDAS [3] (5-ClDA and homocysteine) is listed as “nor is any detected”; on FDAS [3] (homocysteine and 5′-FDA, reverse reaction), “no detectable production of SAH”.
Take `C[S+](CC[C@H](N)C(=O)[O-])C[C@H]1O[C@@H](n2cnc3c(N)ncnc32)[C@H](O)[C@@H]1O` (stereo partly drawn) [SAM, S-adenosyl-L-methionine]: on apo FDAS (ITC), the “Stoichiometry (N)” value is on record as 0.56 ± 0.01, the “Ka (app)” value was 8.0 ± 0.5 ×10^5 M^−1, the S is -0.058 kcal/mol and the ΔH was -25 ± 0.4 kcal/mol. Moreover, on D16N mutation of FDAS, the “SAM binding by ITC” value was “does not bind with measurable affinity”. The “SAM concentration above which FDAS displays substrate inhibition” value on FDAS [4] was “greater than 20 μM”. Also, at FDAS (native, wild type), the pKd was 5.90.
For `Nc1ncnc2c1ncn2[C@@H]1O[C@H](CO)[C@@H](O)[C@H]1O` [Ade, adenosine], at apo FDAS (ITC), the “Stoichiometry (N)” value is 0.67 ± 0.01, the “Ka (app)” value is reported as 12.2 ± 1.2 ×10^5 M^−1, the S is -0.04 kcal/mol and the ΔH is -20 ± 0.4 kcal/mol. Moreover, the pKd on FDAS (native, wild type) was 6.09.
At FDAS (native, wild type), `Nc1ncnc2c1ncn2[C@@H]1O[C@H](CF)[C@@H](O)[C@H]1O` [FDA, 5′-fluoro-5′-deoxyadenosine (5′-FDA)] showed a pKd of 6.66.
Take `F` [fluoride]: the “binding to the protein by ITC” value on apo FDAS (either as apo or SAH complex) is “too weak to measure”.
Turning to `Nc1ncnc2c1ncn2[C@@H]1O[C@H](CSCC[C@H](N)C(=O)O)[C@@H](O)[C@H]1O` [SAH, S-adenosyl homocysteine], on apo FDAS (ITC), the “binding affinity relative to SAM (times more tightly bound)” value is 40 times, the “Stoichiometry (N)” value is on record as 0.72 ± 0.01, the “Ka (app)” value is 302 ± 74 ×10^5 M^−1 and the S is -0.098 kcal/mol. On apo FDAS (ITC), this compound returned a ΔH of -40 ± 0.5 kcal/mol. Further, at FDAS [3], the “effect on the reaction of SAM with F^−” value was “inhibits” and the “substrate of FDAS in the forward direction” value is on record as “not a substrate”. Further, on FDAS [3] (incubation of Cl^− and SAH), the “5′-ClDA production by the enzyme” value is on record as “does not produce 5′-ClDA”. The pKd on FDAS (native, wild type) is 7.48.
For the compound “5′-fluoro-5′-deoxy adenosine synthetase [FDAS]”, the “% activity” value in the test on FDAS [5] amounted to 100%. Further, the “burst size (active sites)” value on FDAS [6] (50 μM SAM mixed with FDAS (2 μM), reaction initiated with 100 mM F^−) turned out to be 0.1 µM; at FDAS [6] (100 mM F^− pre-mixed with FDAS (2 μM), reaction initiated by 50 μM SAM) it was 0.6 µM.

One may read the pKd as the negative decadic logarithm of the Kd, by convention in mol/L. A high value points to a low Kd.

For the origin of these results see article PMC3326528 (Journal of the American Chemical Society, 2007).
